Measured values: ChEMBL document CHEMBL1201862, “PubChem BioAssay data set” (2004)
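How tested: cells in 96-well plates exposed to compound for 48 hours at five concentrations. GI50 is the concentration that inhibits growth by half.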 The source made the active and inactive calls. Cut-off read from the data, not from the text of the source: active = GI50 up to about 1.1 µM and inactive = higher.

Key:
Assay in all cases: NCI-60 cell line screen, 48 h
NCI-H460 = system: NCI-H460
OVCAR-5 = system: OVCAR-5
SK-OV-3 = system: SK-OV-3
UACC-257 = system: UACC-257
SK-MEL-5 = system: SK-MEL-5
IGROV-1 = system: IGROV-1
HCT-116 = system: HCT-116
UO-31 = system: UO-31
K562 = system: K562
COLO 205 = system: COLO 205
SF-539 = system: SF-539
786-0 = system: 786-0
M14 = system: M14
LOX IMVI = system: LOX IMVI
CCRF-CEM = system: CCRF-CEM
KM12 = system: KM12
NCI-H23 = system: NCI-H23
HT-29 = system: HT-29

Measured: GI50

COC(=O)C1=C(c2ccc(OC)c(OC)c2)OC(c2ccc(OC)c(OC)c2)C1 (stereo not drawn)
inactive: NCI-H460 41 µM | OVCAR-5 32.6 µM | SK-OV-3 32.6 µM | UACC-257 36.3 µM | SK-MEL-5 15.6 µM | IGROV-1 25.1 µM | HCT-116 27.3 µM | UO-31 28.8 µM | K562 32.1 µM | COLO 205 17.1 µM | SF-539 33.4 µM | 786-0 31.6 µM | M14 38.7 µM | LOX IMVI 19.5 µM | CCRF-CEM 31.4 µM | KM12 32.7 µM | NCI-H23 48.5 µM | HT-29 22.3 µM

COc1ccc(-c2cc(=O)c3c(O)cc(O)cc3o2)c(OC)c1OC
inactive: OVCAR-5 92.3 µM | SK-OV-3 > 100 µM | UACC-257 > 100 µM | IGROV-1 > 100 µM | K562 42.7 µM | COLO 205 57.7 µM | SF-539 > 100 µM | 786-0 80 µM | M14 > 100 µM | LOX IMVI 70.1 µM | CCRF-CEM 50 µM | KM12 53.1 µM | NCI-H23 > 100 µM | HT-29 80 µM

O=C(N/C(=C\c1cccc([N+](=O)[O-])c1)c1nc2cc([N+](=O)[O-])ccc2[nH]1)c1ccccc1
inactive: OVCAR-5 73.3 µM | SK-OV-3 71.3 µM | SK-MEL-5 20.7 µM | IGROV-1 21.4 µM | UO-31 10.9 µM | K562 25.1 µM | COLO 205 35.6 µM | SF-539 29.4 µM | 786-0 36.1 µM | M14 38.9 µM | CCRF-CEM 19.8 µM | KM12 29.6 µM | NCI-H23 27.3 µM | HT-29 44.4 µM

O=[N+]([O-])/C=C/c1ccc(Cl)cc1Cl
inactive: NCI-H460 17.9 µM | OVCAR-5 17.8 µM | UACC-257 13.4 µM | SK-MEL-5 15.6 µM | IGROV-1 14.8 µM | HCT-116 3.44 µM | UO-31 16.2 µM | K562 3.33 µM | COLO 205 21.2 µM | SF-539 17.1 µM | 786-0 15.6 µM | M14 11.7 µM | CCRF-CEM 3.62 µM | KM12 14.7 µM | NCI-H23 19.2 µM | HT-29 5.77 µM

CN1C(=O)C(Cl)(C(Cl)(Cl)S(=O)(=O)O)C(=O)c2ccccc21.c1ccncc1 (stereo not drawn)
inactive: NCI-H460 > 100 µM | SK-OV-3 > 100 µM | UACC-257 > 100 µM | SK-MEL-5 > 100 µM | IGROV-1 > 100 µM | HCT-116 > 100 µM | UO-31 91.2 µM | K562 > 100 µM | COLO 205 > 100 µM | SF-539 > 100 µM | 786-0 > 100 µM | M14 > 100 µM | LOX IMVI > 100 µM | CCRF-CEM > 100 µM | KM12 > 100 µM | NCI-H23 > 100 µM | HT-29 25.7 µM

Cc1ccccc1C(C#N)/C(=N/NC(=O)C(=O)NN)C(=O)Nc1cccc(C(F)(F)F)c1 (stereo not drawn)
inactive: NCI-H460 > 100 µM | OVCAR-5 > 100 µM | UACC-257 > 100 µM | SK-MEL-5 > 100 µM | IGROV-1 > 100 µM | HCT-116 > 100 µM | UO-31 > 100 µM | K562 > 100 µM | COLO 205 > 100 µM | SF-539 > 100 µM | 786-0 > 100 µM | M14 > 100 µM | CCRF-CEM > 100 µM | KM12 > 100 µM | NCI-H23 > 100 µM | HT-29 > 100 µM

COC[C@@H](/N=C/N1CCc2cc(OC)c(OC)cc2C1)C(C)(C)C
inactive: NCI-H460 > 100 µM | SK-OV-3 > 100 µM | UACC-257 > 100 µM | SK-MEL-5 > 100 µM | IGROV-1 > 100 µM | HCT-116 > 100 µM | UO-31 > 100 µM | K562 > 100 µM | COLO 205 > 100 µM | SF-539 > 100 µM | 786-0 > 100 µM | M14 > 100 µM | CCRF-CEM > 100 µM | KM12 > 100 µM | NCI-H23 > 100 µM | HT-29 > 100 µM

CC(C)C(Nc1c2ccccc2nc2ccccc12)C(=O)O (stereo not drawn)
inactive: NCI-H460 65.5 µM | OVCAR-5 > 100 µM | SK-OV-3 > 100 µM | UACC-257 > 100 µM | IGROV-1 > 100 µM | HCT-116 43.3 µM | UO-31 29.1 µM | K562 > 100 µM | COLO 205 70.1 µM | SF-539 > 100 µM | 786-0 > 100 µM | M14 > 100 µM | LOX IMVI 55.1 µM | CCRF-CEM > 100 µM | KM12 > 100 µM | NCI-H23 > 100 µM | HT-29 59.7 µM
